Data from patent US20070059684A1 (UNIVERSITY OF MEDICINE AND DENTISTRY OF NEW JERSEY, published 2007).
“Also recorded” adds a separate entry of the source. Read-outs that look alike come from different tables or passages of the source. Blank lines part the entries; values can stand above or below the molecule they belong to.

How the values were obtained:
[1] = tested on: nonsense mutations; settings: 5 ug/ml, UPF1+ and UPF1− strains
[2] = tested on: Saccharomyces cerevisiae strains (wildtype, mof4-1); type: cell-based; settings: 30° C. 4 days
[3] = tested on: HIV; type: cell-based, human
[4] = tested on: human host cells; type: cell-based
Procedure: Antiviral activities of these antibiotics were also tested against HIV.

[5] = tested on: L-A, M1 and L-BC dsRNA viruses; type: cell-based, Saccharomyces cerevisiae; settings: 72 hrs at 3.8 μM anisomycin; not confirmed by northern blot
Description: FIG. 12. (A) A single non-killer (K^−) colony from each drug concentration in the 72 hr data set was picked at random and total nucleic acids (TNA) were extracted [Dinman and Wickner, Virology 66:3669 (1992)]. Approximately equal amounts of TNA were separated through a 1% non-denaturing TAE-agarose gel and stained with ethidium bromide. The 4.6 kb L-A and L-BC, and the 1.8 kb M1 dsRNA bands are indicated. (B) RNA was denatured in the gel shown in (A), transferred to nitrocellulose and hybridized with [^32P]CTP labeled L-A and M1 (+) strand RNA probes as described in [Dinman and Wickner, Genetics 136:75 (1994)].
To determine whether loss of the M1 satellite virus was responsible for loss of the killer phenotype, a non-killer (K^−) colony from each drug concentration in the 72 hr data set was picked at random and total nucleic acids (TNA) were extracted [Park et al., Virology 216:451 (1996)]. Approximately equal amourits of TNA were separated through a 1% non-denaturing TAE-agarose gel and stained with ethidium bromide (FIG. 12A). As expected, the 1.8 kb M1 dsRNA band is not present in the K^− (drug treated) samples. Further, L-A appears to have also been cured by these drugs. […]
Recently the cDNA sequence of L-BC (also known as La), a ubiquitous minor dsRNA virus of yeast has been determined [Park et al., supra]. […]

[6] = tested on: killer phenotype (M1 satellite virus); settings: 3.8 μM anisomycin, after 48 or 72 hours, JD88 cells
[7] = tested on: translation; type: cell-based, Saccharomyces cerevisiae; settings: JD88 cells, indicated drug concentrations, 30° C. 5 hrs
[8] = tested on: tcm1/mak8 mutants; settings: cited from earlier work
[9] = molecular target: T1, Upf2p (Saccharomyces cerevisiae, UniProt P38798 1-1089, limits assumed); assay: two-hybrid system
T1 construct: Tested in a two-hybrid system; also called product of the UPF2/IFS1 gene
T1 sequence (looked up): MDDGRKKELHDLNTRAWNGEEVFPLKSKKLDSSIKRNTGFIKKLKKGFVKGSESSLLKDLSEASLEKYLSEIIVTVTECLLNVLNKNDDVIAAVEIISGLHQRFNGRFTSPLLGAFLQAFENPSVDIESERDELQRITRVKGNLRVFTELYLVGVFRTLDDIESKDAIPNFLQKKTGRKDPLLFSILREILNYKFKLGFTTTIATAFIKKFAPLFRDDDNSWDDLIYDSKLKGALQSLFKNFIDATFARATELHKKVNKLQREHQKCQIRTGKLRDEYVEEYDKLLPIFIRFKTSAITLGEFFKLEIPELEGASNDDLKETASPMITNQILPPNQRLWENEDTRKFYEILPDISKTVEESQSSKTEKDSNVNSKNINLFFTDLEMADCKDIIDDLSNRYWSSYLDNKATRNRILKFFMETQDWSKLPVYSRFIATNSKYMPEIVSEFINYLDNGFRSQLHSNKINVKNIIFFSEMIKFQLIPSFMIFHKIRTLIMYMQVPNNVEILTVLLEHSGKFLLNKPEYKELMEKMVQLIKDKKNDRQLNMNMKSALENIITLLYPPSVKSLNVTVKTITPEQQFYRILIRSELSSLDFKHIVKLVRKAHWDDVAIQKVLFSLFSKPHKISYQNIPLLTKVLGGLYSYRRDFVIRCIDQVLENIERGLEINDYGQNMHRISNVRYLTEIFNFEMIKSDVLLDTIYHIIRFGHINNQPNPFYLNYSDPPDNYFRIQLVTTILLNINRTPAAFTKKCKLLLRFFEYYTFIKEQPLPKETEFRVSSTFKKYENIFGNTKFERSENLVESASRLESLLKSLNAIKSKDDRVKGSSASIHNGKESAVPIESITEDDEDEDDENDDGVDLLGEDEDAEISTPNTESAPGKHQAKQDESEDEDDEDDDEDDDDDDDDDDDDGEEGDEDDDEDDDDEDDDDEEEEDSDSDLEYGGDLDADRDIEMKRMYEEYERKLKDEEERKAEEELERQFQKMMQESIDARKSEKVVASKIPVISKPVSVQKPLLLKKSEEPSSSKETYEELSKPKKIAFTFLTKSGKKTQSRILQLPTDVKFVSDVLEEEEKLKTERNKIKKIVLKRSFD

Molecule: NC[C@@H]1O[C@H](O[C@H]2[C@@H](O)[C@H](O[C@@H]3[C@@H](O)[C@H](N)C[C@H](N)[C@H]3O[C@H]3O[C@H](CO)[C@@H](O)[C@H](O)[C@H]3N)O[C@@H]2CO)[C@H](N)[C@@H](O)[C@@H]1O [paromomycin]
nonsense suppression [1]: able to suppress nonsense mutations | PAROMOMYCIN SENSITIVITY (diameter of the zone of growth inhibition) ([2]; strain Wildtype (MOF+UPF+), disc 1.0 mg paromomycin, media lacking leucine): 0.7 cm | PAROMOMYCIN SENSITIVITY (diameter of the zone of growth inhibition) ([2]; strain mof4-1 (UPF1::URA3) + pmof4XAB, disc 1.0 mg, media lacking uracil and leucine): 1.6 cm | PAROMOMYCIN SENSITIVITY (diameter of the zone of growth inhibition) ([2]; strain mof4-1 (UPF1::URA3) + pmof4XAE, disc 1.0 mg, media lacking uracil and leucine): 2.3 cm | PAROMOMYCIN SENSITIVITY (diameter of the zone of growth inhibition) ([2]; strain mof4-1 (UPF1::URA3) + vector, disc 1.0 mg, media lacking uracil and leucine): 1.7 cm | PAROMOMYCIN SENSITIVITY (diameter of the zone of growth inhibition) ([2]; strain mof4-1 + pYCpUPF1, disc 1.0 mg, media lacking uracil and leucine): 1.6 cm | PAROMOMYCIN SENSITIVITY (diameter of the zone of growth inhibition) ([2]; strain mof4-1 + vector, disc 1.0 mg, media lacking uracil and leucine): 2.4 cm | PAROMOMYCIN SENSITIVITY (diameter of the zone of growth inhibition) ([2]; strain mof4-1, disc 1.0 mg paromomycin, media lacking leucine): 2.0 cm

Molecule: COc1ccc(C[C@H]2NC[C@H](O)[C@H]2OC(C)=O)cc1 [anisomycin]
titers of HIV [3]: decrease titers of HIV | HIV viral titers as % of the no drug controls ([3]; anisomycin at concentrations 1500-fold lower than MIC, 4 days): approximately 30% | antiviral concentration relative to the MIC (fold lower) ([3]; concentration giving approximately 30% HIV titer): 1500 | minimum inhibitory concentration (MIC) [4]: about 1.5 ug/ml | nonsense suppression [1]: able to suppress nonsense mutations | L-BC dsRNA band [5]: appears to missing | loss of the killer phenotype (non-killer colonies / total colony forming units) [6]: approximately 53% | overall translation (β-gal activities from pTI25) as percentage of the no drug controls [7]: ≥ 80% | effectiveness in tcm1/mak8 mutants [8]: resistant; also recorded: ineffective

binding result [9]: binds
B1: Upf1p (other, Saccharomyces cerevisiae, UniProt P30771 1-971, looked up)
chain: MVGSGSHTPYDISNSPSDVNVQPATQLNSTLVEDDDVDNQLFEEAQVTETGFRSPSASDNSCAYCGIDSAKCVIKCNSCKKWFCNTKNGTSSSHIVNHLVLSHHNVVSLHPDSDLGDTVLECYNCGRKNVFLLGFVSAKSEAVVVLLCRIPCAQTKNANWDTDQWQPLIEDRQLLSWVAEQPTEEEKLKARLITPSQISKLEAKWRSNKDATINDIDAPEEQEAIPPLLLRYQDAYEYQRSYGPLIKLEADYDKQLKESQALEHISVSWSLALNNRHLASFTLSTFESNELKVAIGDEMILWYSGMQHPDWEGRGYIVRLPNSFQDTFTLELKPSKTPPPTHLTTGFTAEFIWKGTSYDRMQDALKKFAIDKKSISGYLYYKILGHQVVDISFDVPLPKEFSIPNFAQLNSSQSNAVSHVLQRPLSLIQGPPGTGKTVTSATIVYHLSKIHKDRILVCAPSNVAVDHLAAKLRDLGLKVVRLTAKSREDVESSVSNLALHNLVGRGAKGELKNLLKLKDEVGELSASDTKRFVKLVRKTEAEILNKADVVCCTCVGAGDKRLDTKFRTVLIDESTQASEPECLIPIVKGAKQVILVGDHQQLGPVILERKAADAGLKQSLFERLISLGHVPIRLEVQYRMNPYLSEFPSNMFYEGSLQNGVTIEQRTVPNSKFPWPIRGIPMMFWANYGREEISANGTSFLNRIEAMNCERIITKLFRDGVKPEQIGVITPYEGQRAYILQYMQMNGSLDKDLYIKVEVASVDAFQGREKDYIILSCVRANEQQAIGFLRDPRRLNVGLTRAKYGLVILGNPRSLARNTLWNHLLIHFREKGCLVEGTLDNLQLCTVQLVRPQPRKTERPMNAQFNVESEMGDFPKFQDFDAQSMVSFSGQIGDFGNAFVDNTELSSYINNEYWNFENFKSAFSQKQNRNEIDDRNLYQEEASHLNSNFARELQREEQKHELSKDFSNLGI
notes: Tested in a two-hybrid system; also called Upf1 protein; product of the UPF1/IFS2/MOF4 gene

binding result [9]: binds
B2: Upf3p (other, Saccharomyces cerevisiae, UniProt P48412 1-387, looked up)
chain: MSNVAGELKNSEGKKKGRGNRYHNKNRGKSKNETVDPKKNENKVNNATNATHNNSKGRRNNKKRNREYYNYKRKARLGKSTENEGFKLVIRLLPPNLTADEFFAILRDNNNDDGDKQDIQGKLKYSDWCFFEGHYSSKVFKNSTYSRCNFLFDNLSDLEKCANFIKTCKFIDNKDNITIPDMKLSPYVKKFTQTSKKDAALVGTIEEDEIFKTFMNSMKQLNENDEYSFQDFSVLKSLEKEFSKSIELENKIAERTERVLTELVGTGDKVKNKNKKKKNKNAKKKFKEEEASAKIPKKKRNRGKKKRENREKSTISKTKNSNVVIIEEAGKEVLKQRKKKMLLQEKLKISNSSQPQSSSAQTQPSFQPKENLFVPRVKILHRDDTKK
notes: Tested in a two-hybrid system; also called product of the UPF3 gene
